Experimental data reported in patent publication US7279332B2, “Method of isolating ependymal neural stem cells” (NeuroNova AB, priority 1998, dated 2007).

System: nigral dopamine neurons (substantia nigra pars compact)
Assay: Quantitative in vivo neurogenesis in substantia nigra pars compact after DiI labeling of ependymal cells
Settings: mice
Procedure: Adult rats and mice were given DiI through intraventricular injections as described in the example above. At various time intervals after the injection (hours-months), the animals were transcardially perfused with 15 ml 0.9% saline, followed by 50 ml of +4° C. 4% (w/v) paraformaldehyde and 0.4% (v/v) picric acid in 0.1 M phosphate buffered saline, pH 6.9, during 5 min. After brain removal, the tissue was fixed for an additional 90 minutes in the same fixative and cryoprotected in buffered sucrose (10% for 24 h, 30% for 2 days) at +4° C. The entire midbrain was cut with a cryostat using a systematic, uniform random sampling design, where 40 μm thick frontal sections were taken to six parallel rostrocaudal series. One series of sections was kept in 0.1 M PBS and the fluorescent signal was immediately converted to a permanent diaminobenzidine (DAB) signal using a modified previously described protocol (Singleton et al., J. Neurosci. Meth. 64:47). […] The photoconversion process was carefully evaluated and when all the fluorescent signal in substantia nigra was visualized with the brown DAB product, the sections were immunohistochemically labeled with a marker (Vector SG, Vector) for dopamine neurons (tyrosine hydroxylase) utilizing the avidin-biotin-immunoperoxidase system (Vector) (Janson et al., Neuroscience 57:931). The five parallel series of sections were instead stored in 30% sucrose in 0.1 M PBS at −20° C. until they were processed for immunohistochemistry and analyzed in a confocal laser scanning microscope utilizing several markers for glia and neurons (with appropriate controls) to determine the neuronal phenotype of the DiI labeled cells in substantia nigra pars compact (FIG. 8).
Quantitative estimates of the total number of TH immunoreactive cell bodies counterstained with cresyl violet (TH/CV+ neurons) as well as TH immunoreactive cell bodies also containing DiI label were made in the bilateral SNc. Neuronal counts were determined using coded sections and a stereological technique, the optical fractionator (Janson et al., Neuroscience 57:931). […]

## CN1CC=C(c2ccccc2)CC1 [MPTP, 1-methyl-4-phenyl-1,2,3,6-tetrahydropyridine]
MPTP 40 mg/kg sc. vs vehicle
  number of TH+/DiI+ nigral neurons: higher numbers of TH+/DiI+ nigral neurons
MPTP 40 mg/kg sc. vs vehicle, qualitative appearance
  migratory streams of DiI+ cells in the midbrain: appeared more pronounced
MPTP 40 mg/kg sc., regression curve (r^2=0.744) of counts at a few hours to 2 months
  increase in number of new neurons generated each week in substantia nigra, compared to animals treated with vehicle alone: 24%
